Results reported in ChEMBL document CHEMBL1127264, “Substituted 1,3-benzodioxole & 1,3-benzodithiole -2-carboxylates and their tetrazole analogs with potent binding affinity to the angiotensin II AT1 receptor” (Bioorg Med Chem Lett, 1994).
pIC50: −log10 of the molar value.

Tests used:
[1] = target: T1, Type-2 angiotensin II receptor (Rattus norvegicus, UniProt P35351); assay: Binding affinity to AT2 receptor in rat midbrain binding assay; format: tissue-based
T1 sequence (P35351 whole entry): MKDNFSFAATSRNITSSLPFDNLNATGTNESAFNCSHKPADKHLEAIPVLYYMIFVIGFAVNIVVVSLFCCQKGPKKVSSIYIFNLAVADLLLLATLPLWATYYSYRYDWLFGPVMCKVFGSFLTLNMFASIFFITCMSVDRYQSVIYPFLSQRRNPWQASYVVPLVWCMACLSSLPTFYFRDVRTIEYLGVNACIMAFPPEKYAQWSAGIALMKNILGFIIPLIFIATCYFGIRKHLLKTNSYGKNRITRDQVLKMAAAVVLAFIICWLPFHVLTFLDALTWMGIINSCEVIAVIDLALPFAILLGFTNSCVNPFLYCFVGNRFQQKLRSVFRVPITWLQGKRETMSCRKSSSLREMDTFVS

[2] = target: T2, Type-1 angiotensin II receptor (Oryctolagus cuniculus, UniProt P34976); assay: Binding affinity to Angiotensin II receptor, type 1 in rabbit aorta binding assay; format: tissue-based
T2 sequence (P34976 whole entry): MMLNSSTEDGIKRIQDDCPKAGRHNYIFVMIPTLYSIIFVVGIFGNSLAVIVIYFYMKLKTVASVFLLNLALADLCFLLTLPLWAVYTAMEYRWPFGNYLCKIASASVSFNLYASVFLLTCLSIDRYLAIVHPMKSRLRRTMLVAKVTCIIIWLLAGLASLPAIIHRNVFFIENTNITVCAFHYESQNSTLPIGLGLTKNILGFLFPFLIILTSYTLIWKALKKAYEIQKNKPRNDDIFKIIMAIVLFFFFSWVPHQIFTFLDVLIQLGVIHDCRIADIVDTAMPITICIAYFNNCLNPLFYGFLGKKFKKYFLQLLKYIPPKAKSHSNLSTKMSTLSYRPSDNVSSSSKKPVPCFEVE

| pIC50 [1] | pIC50 [2] | SMILES |
| --- | --- | --- |
| 5.55 | 7.25 | CCCc1nc2c(C)ccnc2n1Cc1ccc2c(c1)OC(C(=O)O)(c1ccccc1)O2 (stereo not drawn) |
| 5.09 | 7.47 | CCCc1nc2c(C)ccnc2n1Cc1ccc2c(c1)SC(C(=O)O)(c1ccccc1)S2 (stereo not drawn) |
| 4.80 | 7.35 | CCCc1nc2c(C)ccnc2n1Cc1ccc2c(c1)OC(c1ccccc1)(c1nn[nH]n1)O2 (stereo not drawn) |
| 4.82 | 7.46 | CCCc1nc2c(C)ccnc2n1Cc1ccc2c(c1)SC(c1ccccc1)(c1nn[nH]n1)S2 (stereo not drawn) |
